One compound from ChEMBL document CHEMBL1287808, “Synthesis and anti-HCV activity of a new 2'-deoxy-2'-fluoro-2'-C-methyl nucleoside analogue” (Bioorg Med Chem Lett, 2010) can be followed below.

As usually defined, the EC50 is the concentration at which the effect is half-maximal. Low values mean higher potency in that assay, high ones lower potency in that assay. In general, IC50 refers to the point on the concentration scale where inhibition reaches its midpoint.

Each structure is given as a SMILES string. Values after ≈ are worked out from the molar mass of the structure shown. Active and inactive are the calls of the source. No cut-off for these calls is given here.

Experiment [1] relates to Hepatitis C virus. The experiment in a line: Antiviral activity against Hepatitis C virus infected in HEK293 cell expressing sip-L protein assessed viral RNA level. In kind it is functional, organism-based, Hepacivirus hominis.
For experiment [2], the system named is Hepatitis C virus. Description: Antiviral activity against Hepatitis C virus infected in HEK293 cell expressing sip-L protein. The experiment is classed as functional, organism-based, Hepacivirus hominis.
In experiment [3] the test system is Hepatitis C virus. Description: Antiviral activity against Hepatitis C virus infected in Ava5 cell assessed as suppression of HCV replication at 0.6 ug/ml. Particulars: Hepacivirus hominis. In kind it is functional, organism-based.
Experiment [4] has as its system Hepatitis C virus. The experiment in a line: Antiviral activity against Hepatitis C virus infected in Ava5 cell assessed as suppression of HCV replication at 6 ug/ml. In kind it is functional, organism-based. As to conditions: Hepacivirus hominis.
In experiment [5] the test system is Hepatitis C virus. Description: Antiviral activity against Hepatitis C virus infected in Ava5 cell assessed as suppression of HCV replication at 0.06 ug/ml. In kind it is functional, organism-based. As to conditions: Hepacivirus hominis.

As to `C[C@@]1(F)[C@H](O)[C@@H](CO)O[C@H]1n1cc(F)c2c(N)ncnc21`, a half-maximal effect in experiment [1] (EC50) was put at 0.8 µg/mL (≈ 2.66 µM). In experiment [2], this compound came in with an IC50 of 350 µg/mL (≈ 1170 µM). Besides, the result in experiment [3] and in experiment [4] was Active. Also, in experiment [5], the outcome was inactive.
